# According to US20250275938A1, “COMPOSITIONS AND METHODS FOR TREATMENT OF CANCER” (SCIROSBIO (FZC), priority 2022, published 2025):
# Key:
# C6 glioma cells [1] = test: AO/EtBr dual staining for apoptosis, C6; type: cell-based, rat; conditions: respective IC50 concentrations
# Excerpt: (§1) AO/EtBr are fluorescent nuclear stains, which distinguish between live and dead cells based on their membrane integrity. AO intercalates in the DNA of live cells imparting green shade to the nucleus as an indica-tor of viability. In the case of the dead cell, EtBr intercalates along with AO, resulting in an orange appearance, with an increased orange appearance corresponding to a concomitant increase in the number of dead cells and vice versa.
# (§2) After the treatment period, monolayer cells were stained with AO/EtBr stain (1 mg/ml) and were visualized immediately under a fluorescence microscope (Axiovert, Carl Zeiss) at 20× magnification.
# [2] = system: human pancreatic cancer (PANC1) cells; test: MTT cell viability assay, PANC1; type: cell-based; conditions: 24 hours
# Protocol: Cell lines and culture conditions: A human pancreatic cancer cell line PANC1 and human colon cancer cell line HCT116 were obtained from National Centre for Cell Science (NCCS), Pune, India. The PANC1 cells were sub-cultured in Dulbecco's Modified Eagle's Medium (DMEM) supplemented with 10% FBS at 5% C02 and 37° C. The HCT116 cells were sub-cultured in McCoy's 5A media supplemented with 10% FBS at 5% CO2 and 37° C. […] The cells were allowed to attach 70% to the surface prior to treatment. […] Suspensions were aspirated 10 times before treatment. Cells treated with vehicle control were used as a control. Cell viability assay: PANC1 and HCT116 cells ([…] cells/ml) were seeded in 96-well plates and exposed to different individual-drug treated groups with varying concentrations (0, 20, 40, 60, 80, 100, 120, 140, 160, 180 and 200 μM) for a period of 24 hours. The individual-treated groups include Group I: 5 Fluorouracil (5FU)-treated PANC1 and HCT116 cells; Group II: MET-treated PANC1 and HCT116 cells; Group III: EGCG-treated PANC1 and HCT116 cells and Group IV: 5FU+[…] PANC1 and HCT116 cells.
# [3] = system: human breast cancer (MDA-MB-453) cells; test: MTT cell viability assay, MDA-MB-453; type: cell-based; conditions: 24 hours
# Protocol: Cell lines and culture conditions: A human breast cancer cell line MDA-MB-453 and human bone cancer cell line SaoS2 were obtained from National Centre for Cell Science (NCCS), Pune, India. The MDA-MB-453 cells were sub-cultured in Dulbecco's Modified Eagle's Medium (DMEM) supplemented with 10% FBS at 5% CO2 and 37° C. The SaoS2 cells were sub-cultured in McCoy's 5A media supplemented with 10% FBS at 5% CO2 and 37° C. […] The cells were allowed to attach 70% to the surface prior to treatment. […] Suspensions were aspirated 10 times before treatment. Cells treated with vehicle control were used as a control. Cell viability assay: MDA-MB-453 and SaoS2 cells (5×10^3 cells/ml) were seeded in 96-well plates and exposed to different individual-drug treated groups with varying concentrations (0, 20, 40, 60, 80, 100, 120, 140, 160, 180 and 200 μM) for a period of 24 hours.
# C6 glioma cells [4] = test: Quantitative RT-PCR gene expression, C6; type: cell-based, rat
# Protocol: (§3) Quantitative RT-PCR analysis of antioxidant enzymes (SOD and CAT), oxidative stress marker (Nrf-2), and apoptosis markers (BCL2 and Caspase-9). Total RNA from all experimental groups was isolated using RNA Express reagent (HiMedia, India) and the respective cDNAs were synthesized using a Hi-c-DNA Synthesis Kit (HiMedia, India). Quantitative RT-PCR was carried out using a CFX 96 thermocycler (Bio-Rad, Hercules, CA) and TB Green Premix Ex Taq 1 (Takara Bio, Otsu, Japan) to detect mRNA. Independent experiments were conducted in triplicate. The cycle threshold (Ct), representing a positive PCR result, is defined as the cycle number at which a sample's fluorescence intensity crossed the threshold automatically determined by the CFX 96.
# (§4) The relative changes in gene expression were calculated with the 2^−ΔΔCt method, wherein ΔΔCt=(Cttarget gene−Ctβ-actin) sample−([…]) calibrator.
# (§5) The qPCR analyses were performed to measure the expression levels of genes associated with anti-Warburg effect. The total RNA was extracted from the cell lysates and brain tissues of all the experimental groups using TRIZOL reagent (Takara Bio, Shiga, Japan). Quantitative RT-PCR was carried out using a CFX96 Real Time PCR Detection System (Bio-Rad, California, USA) and TB Green Premix Ex Taq I (Takara Bio, Shiga, Japan) to detect messenger ribonucleic acid (mRNA).
# (§6) Independent experiments were conducted in triplicate. The relative changes in gene expression were calculated with the 2^−ΔΔCt method, where ΔΔCt=Sample (Cttarget gene−Ctβ-actin)−Calibrator (Cttarget gene−Ctβ-actin).
# [5] = system: intracellular ROS in U87MG cells; test: ROS activity by DCF-DA, U87MG; type: cell-based, human; conditions: IC50 concentrations, vs control
# Protocol: Determination of ROS activity by DCF-DA. U87MG and C6 cells were seeded at 5×10^3 cells/well in 96 well plates. […] After the treatment period, monolayer cells were stained with DCF-DA stain, and the absorbance was read at 530 nm spectrophotometrically (Molecular Devices Spectra-Max M5, USA). This method is commonly used in ROS investigations and is based on the application of H2DCFDA (acetylated form of DCF), which is consecutively deacetylated inside the cells by intracellular esterase.
# U87MG human glioma cells = test: AO/EtBr dual staining for apoptosis, U87MG; type: cell-based; conditions: respective IC50 concentrations
# Excerpt: as §1, §2
# U87MG glioma cells = test: Quantitative RT-PCR gene expression, U87MG; type: cell-based, human
# Protocol: as §3, §4, §5, §6
Structure (SMILES),apoptotic cell death (AO/EtBr) (C6 glioma cells [1]),apoptotic cell death (AO/EtBr) (C6 glioma cells [1]; listed as E),"cell viability (MTT), in words [2]","cell viability (MTT), in words [3]",mRNA expression levels of BCL2 (C6 glioma cells [4]),mRNA expression levels of Caspase-9 (C6 glioma cells [4]),mRNA transcript levels of Nrf-2 (C6 glioma cells [4]),mRNA transcripts of the antioxidant genes (SOD and CAT) (C6 glioma cells [4]),intracellular ROS levels (DCF-DA fluorescence intensity) [5],apoptotic cell death (AO/EtBr) (U87MG human glioma cells),apoptotic cell death (AO/EtBr) (U87MG human glioma cells; listed as E),mRNA expression levels of BCL2 (U87MG glioma cells),mRNA expression levels of Caspase-9 (U87MG glioma cells),mRNA transcript levels of Nrf-2 (U87MG glioma cells),mRNA transcripts of the antioxidant genes (SOD and CAT) (U87MG glioma cells),apoptotic cell death (AO/EtBr) (C6 glioma cells [1]; hydrochloride),"apoptotic cell death (AO/EtBr) (C6 glioma cells [1]; listed as M, hydrochloride)",apoptotic cell death (AO/EtBr) (U87MG human glioma cells; hydrochloride),"apoptotic cell death (AO/EtBr) (U87MG human glioma cells; listed as M, hydrochloride)"
"O=C(O[C@@H]1Cc2c(O)cc(O)cc2O[C@@H]1c1cc(O)c(O)c(O)c1)c1cc(O)c(O)c(O)c1 [EGCG, [(2R,3R)-5,7-dihydroxy-2-(3,4,5-trihydroxyphenyl)-3,4-dihydro-2H-chromen-3-yl] 3,4,5-trihydroxybenzoate]",did not produce any significant apoptotic activity,no apoptosis,reduction in cell viability in a dose-dependent fashion,reduction in cell viability in a dose-dependent fashion,not found to be statistically significant,not found to be statistically significant,did not have any significant effect,significant up-regulation,increased significantly,did not produce any significant apoptotic activity,no apoptosis,not found to be statistically significant,not found to be statistically significant,did not have any significant effect,significant up-regulation,–,–,–,–
"CN(C)C(=N)N=C(N)N.Cl [MET, 3-(diaminomethylidene)-1,1-dimethylguanidine; hydrochloride]",–,–,reduction in cell viability in a dose-dependent fashion,reduction in cell viability in a dose-dependent fashion,not found to be statistically significant,not found to be statistically significant,did not have any significant effect,–,did not show much effect on ROS levels,–,–,not found to be statistically significant,not found to be statistically significant,did not have any significant effect,–,did not produce any significant apoptotic activity,no apoptosis but loss of cell membrane integrity,did not produce any significant apoptotic activity,no apoptosis but loss of cell membrane integrity
